In patent US20250144050A1, “AMINOTHIOL-CONJUGATES, COMPOSITIONS, AND METHODS OF USE THEREOF” (THE BURLINGTON HC RESEARCH GROUP, INC., priority 2021, published 2025):
Read-outs that look alike come from different tables or passages of the source.

Assays:
HCC38 cells = assay: CyQUANT cell viability assay, 48-hour exposure; assay type: cell-based, human
Experimental: (§1) After drug treatments, fluorescence readings from 96-well plates were obtained using the CyQUANT dye and compared to standard curves for each cell line to determine cell viability. […] Trypan blue exclusion was used to estimate cell numbers in a few pilot experiments and was thereafter applied to confirm cell death.
(§2) A series of experiments was conducted to assess the relative efficacy of 4SP65, 1LP65, and amifostine as single agents in the same human cancer cell lines. First, the effectiveness of 4SP65 was tested against 15 cancer cell lines derived from seven tissues. […] The effectiveness of 0 to ≤500 μM amifostine was tested in sets of cancer cell lines reported to have either medium, high, or no expression of alkaline phosphatase.
(§3) Trans. R Soc. Lond. […] Using cell numbers based on fluorescence measurements and standard curves [time zero, (Tz), control growth, (C), and test growth in the presence of drug at five or more concentration levels (Ti)], the percentage growth was calculated at each drug concentration level. The percentage of growth inhibition was calculated as follows:
(§4) The LC50/99 was calculated using Equation 2=−50 and Eq. 2=−99, respectively. […] For NHMECs, the relationships between drug exposure levels and fluorescence units were used to define dose-response metrics. The selectivity index (SI) values for individual drug treatments were calculated as IC50 levels in NHMECs divided by the IC50 values in cancer cell lines.

A549 NSCLC cells = settings: 48 h; for GI50 / IC50 / LC99 / TGI: each drug alone
Experimental: (§7) Trypan Blue exclusion was applied as a complementary confirmation probe for cell death.
(§8) Statistical comparisons of differences in individual dose-response metrics between individual/paired drug treatments and various cell lines were conducted using the Student's t-test, with P-values <0.05 considered significant.
(§9) Relative cell growth inhibition values for differing levels each drug alone and in combination were input into SynergyFinder to generated dose-response curves for each drug alone, to produce a dose-response matrix, to visualize the distribution of areas of differing degrees of synergism in a 2-dimension heatmap and 3-dimension volcano plot, and to calculate average and maximum synergy scores in selected human cancer cell lines. […] Synergy scores <10 means that the interaction between two drugs was likely to be antagonistic; scores from −10 to 10 means the interaction between two drugs was likely to be additive; and scores >10 means the interaction between two drugs was likely to be synergistic.

human cancer cell lines = assay: CyQUANT cell viability assay, 48-hour exposure, panel averages; settings: for fold greater cytostatic effect than amifostine: HCC38, PC3, SKOV3, TOV21G (amifostine GI50 <100 μM); for fold more potent than amifostine as a cytostatic agent, averaging: averages of dose-response metrics across panel
Experimental: as §1, §2, §3, §4

[1] = tested on: SKOV3 ovarian cancer cells; assay type: cell-based
Experimental: as §7, §8, §9

DU-145 = assay: Trypan Blue cell count after 48 hour exposure; assay type: cell-based, human; settings: read-out: Average Growth Inhibitory Dose 50% [EC50], Prostate CA (DU-145)
Experimental: (§5) To evaluate the anticancer activity of 4-arm star polyethylene glycol conjugated to WR-1065 (4SP65), the anticancer efficacy of 4SP65 was determined in some of the same cell lines used by NIH/NCI, and the methodology used was the same as is used by the NCI to evaluate chemotherapeutic agents currently in use (O'Connor et al., “Characterization of the p53 Tumor Suppressor Pathway in Cell Lines of the National Cancer Institute Anticancer Drug Screen and Correlations With the Growth-Inhibitory Potency of 123 Anticancer Agents,” Cancer Res. 57 (19): 4285-300 (1997), which is hereby incorporated by reference in its entirety). Testing of 6 cancer types was completed: (i) breast cancer (MDA-MB-231 cells), (ii) lung cancer (A549), (iii) prostate cancer cell line (LNCaP), (iv) myelogenous leukemia (HL60 cells), (v) ovarian cancer (SK-OV-3), and (vi) prostate cancer (DU-145).
(§6) Each cell line was grown in medium as recommended by the ATCC or as presented in the literature for that cell line. All cells were cultured in a water jacket incubator at 36-37° C. and in the presence of 5% CO2. To ensure optimal growth and viability, all cells were grown on plates coated with FNC (In Vitrogen). Cells were refed with growth medium twice weekly until they had reached 60 to 70% confluence. At this point, the medium was replaced with growth medium supplemented with 4SP65 at doses ranging from 0 to up to 300 micromolar. Cells were allowed to grow in the presence of this supplemented medium for 48 hours, and then they were removed by trypsinization, stained with Trypan Blue and counted in a hemocytometer. Three to four replicates for each dose group per experiment were performed. The percentage cell death was determined by comparing the average number of surviving cells exposed to 4SP65 versus the average number of surviving sham exposed cells.

SK-OV-3 = assay: Trypan Blue cell count after 48 hour exposure; assay type: cell-based, human; settings: read-out: Average Growth Inhibitory Dose 50% [EC50], Ovarian CA (SK-OV-3)
Experimental: as §5, §6

HL60 cells = assay: Trypan Blue cell count after 48 hour exposure; assay type: cell-based, human; settings: read-out: Average Growth Inhibitory Dose 50% [EC50], Myelogenous Leukemia (HL60)
Experimental: as §5, §6

MDA-MB-231 cells = assay: Trypan Blue cell count after 48 hour exposure; assay type: cell-based, human; settings: read-out: Average Growth Inhibitory Dose 50% [EC50], Breast CA (MDA-MB-231)
Experimental: as §5, §6

LNCaP = assay: Trypan Blue cell count after 48 hour exposure; assay type: cell-based, human; settings: read-out: Average Growth Inhibitory Dose 50% [EC50], Prostate cancer cell line (LNCaP)
Experimental: as §5, §6

A549 = assay: Trypan Blue cell count after 48 hour exposure; assay type: cell-based, human; settings: read-out: Average Growth Inhibitory Dose 50% [EC50], Lung CA (A549)
Experimental: as §5, §6

[2] = tested on: Normal human mammary epithelial cells (M99005); assay: Trypan Blue cell count, normal cells, 48 hours; assay type: cell-based
Experimental: For comparison purposes, the growth inhibitory does of 4SP65 required to reduce the growth of normal human mammary epithelial cells by 50% was above 300 micromolar. The exact value has not been determined as of yet due to the fact that 4SP65 forms a hydrogel in medium when present at a concentration that exceeds 300 micromolar.
Normal human mammary epithelial cells were grown as described in Example 1, with the exception that the growth medium was as MEBM (purchased from American Type Tissue Culture Collection). When the cells had reach 50 to 60%, the growth medium was removed and medium supplemented with 0 to 300 microM 4SP65 was added to each well containing cells. At 48 hours, the cells were removed by trypsinization stained with Trypan Blue, and counted using a hemocytometer. […] The finding of a biphasic growth inhibition curve for WR-1065 has been reported previously (Calabro-Jones et al. “The limits to radioprotection of Chinese hamster V79 cells by WR-1065 under aerobic conditions.” Radiat Res. 149:550-559 (1998), which is hereby incorporated by reference in its entirety). Additional experiments now have been completed and are described infra).

[3] = 48-hour, 15 cancer cell lines (4SP65), 11 (1LP65)

Q: 4-star PEG-S-S-WR1065 [4SP65] was tested. Which “Relative potency compared to amifostine at IC50” value (HCC38 cells; HCC38 cells) did it give?
A: 67 fold

Q: And the selectivity index (HCC38 cells; IC50 of 76 in most sensitive NHMEC strain / IC50 in HCC38)?
A: > 19

Q: What about the “LC99, amount of each drug in combination” value (A549 NSCLC cells; 4SP65-cisplatin combined) of the same molecule?
A: 8 µM

Q: What about the GI50 (A549 NSCLC cells; cisplatin series) of the same molecule?
A: 5.4 ± 2.5 µM

Q: And the IC50 (A549 NSCLC cells; cisplatin series)?
A: 6.8 ± 1.3 µM

Q: And the LC99 (A549 NSCLC cells; cisplatin series)?
A: 14.9 ± 3.8 µM

Q: What about the TGI (A549 NSCLC cells; cisplatin series) of the same molecule?
A: 8.3 ± 1.5 µM

Q: What about the GI50 (A549 NSCLC cells; gefitinib series) of the same molecule?
A: 6 ± 0.6 µM

Q: What about the IC50 (A549 NSCLC cells; gefitinib series) of the same molecule?
A: 7.4 ± 0.7 µM

Q: And the LC99 (A549 NSCLC cells; gefitinib series)?
A: 12.3 ± 3.8 µM

Q: And the TGI (A549 NSCLC cells; gefitinib series)?
A: 11.3 ± 1.5 µM

Q: And the “fold greater potency than predicted by ratio of four vs one WR1065/molecule” value (human cancer cell lines; 4SP65 versus 1LP65)?
A: ~2.5 fold

Q: What about the “LC99, average across cell lines” value (human cancer cell lines; [3]) of the same molecule?
A: 11.2 µM

Q: What about the “LC99, range” value (human cancer cell lines; [3]) of the same molecule?
A: 3.0 to 21.1 µM

Q: And the “TGI, average across cell lines” value (human cancer cell lines; [3])?
A: 6.8 ± 1.1 µM

Q: What about the “TGI, range” value (human cancer cell lines; [3]) of the same molecule?
A: 2.0 to 16.3 µM

Q: And the “fold greater cytostatic effect than amifostine” value (human cancer cell lines)?
A: 38 fold

Q: And the “fold more potent than 1LP65, averaging” value (human cancer cell lines; across dose-response metrics)?
A: 10.4 fold

Q: And the “fold more potent than amifostine as a cytostatic agent, averaging” value (human cancer cell lines)?
A: 55 fold

Q: And the GI50 (human cancer cell lines; read-out: GI50, average across cell lines, 48-hour, 15 cancer cell lines (4SP65), 11 (1LP65))?
A: 4.1 ± 0.8 µM

Q: What about the GI50 (human cancer cell lines; read-out: average GI50, HCC38, PC3, SKOV3, and TOV21G) of the same molecule?
A: 1.7 µM

Q: And the CC50 [1]?
A: 9.7 ± 0.5 µM

Q: And the GI50 ([1]; SKOV3, each drug alone, 48 h)?
A: 4.3 ± 1 µM

Q: What about the IC50 ([1]; SKOV3, each drug alone, 48 h) of the same molecule?
A: 5.2 ± 1 µM

Q: And the LC99 ([1]; SKOV3, each drug alone, 48 h)?
A: 10.0 ± 0.8 µM

Q: And the TGI ([1]; SKOV3, each drug alone, 48 h)?
A: 7.3 ± 0.8 µM

Q: What about the “fold more effective as cytostatic agent than PRIMA-1/PRIMA-1met (GI50)” value ([1]; TP53-null SKOV3 cells) of the same molecule?
A: 16 fold

Q: And the EC50 (DU-145)?
A: 6.7 µM

Q: And the EC50 (SK-OV-3)?
A: 5 µM

Q: What about the EC50 (HL60 cells) of the same molecule?
A: 3 µM

Q: What about the EC50 (MDA-MB-231 cells) of the same molecule?
A: 4.5 µM

Q: And the EC50 (LNCaP)?
A: 9.5 µM

Q: What about the EC50 (A549) of the same molecule?
A: 15 µM

Q: And the “inhibition of cell growth” value ([2]; 0 to 300 microM except 100 microM, 48 hours)?
A: No inhibition of cell growth was observed

Q: What about the EC50 ([2]; normal human mammary epithelial cells, read-out: growth inhibitory dose required to reduce growth by 50%) of the same molecule?
A: > 300 µM

Q: For `COCCOCCOCCOCCOCCOCCSSCCNCCCN` [1LP65, m-PEG6-S-S-WR1065], which “LC99, average across cell lines” value (human cancer cell lines; [3]) is on record?
A: 126 ± 15.8 µM

Q: What about the “LC99, range” value (human cancer cell lines; [3]) of the same molecule?
A: 83.5 to 234 µM

Q: And the “TGI, average across cell lines” value (human cancer cell lines; [3])?
A: 69.3 ± 10.3 µM

Q: And the “TGI, range” value (human cancer cell lines; [3])?
A: 32.7 to 126 µM

Q: What about the “fold greater cytostatic effect than amifostine” value (human cancer cell lines) of the same molecule?
A: 2.1 fold

Q: And the GI50 (human cancer cell lines; Homo sapiens, 48 h, read-out: GI50, average across cell lines, 48-hour, 15 cancer cell lines (4SP65), 11 (1LP65))?
A: 41.2 ± 5.4 µM

Q: And the GI50 (human cancer cell lines; Homo sapiens, 48 h, read-out: GI50, range for individual cell lines, 48-hour, 15 cancer cell lines (4SP65), 11 (1LP65))?
A: 21.3 to 77.7 µM

Q: And the CC50 (human cancer cell lines; Homo sapiens, 48 h, read-out: LC50, average across cell lines)?
A: 94.6 ± 12.8 µM

Q: And the CC50 (human cancer cell lines; Homo sapiens, 48 h, read-out: LC50, range)?
A: 51.3 to 157 µM

Q: And the GI50 (human cancer cell lines; Homo sapiens, read-out: average GI50, HCC38, PC3, SKOV3, and TOV21G)?
A: 30.4 µM

Q: And the “fold more potent than amifostine as a cytostatic agent, averaging” value (human cancer cell lines)?
A: 5.9 fold
